Results on 13 compounds are retold here after patent US11230540B2, “Substituted triazole derivatives and uses thereof” (Bayer Pharma Aktiengesellschaft, priority 2017, dated 2022).

pIC50: −log10 of the molar value. Structures can show the parent of a compound that is named as a salt.

The target of one experiment is T1, human V1a receptor (Homo sapiens, UniProt P37288).
T1 construct: expressed in transfected cells; host or cells: CHO K1 (Chinese hamster ovary), also stably transfected with a modified aequorin
In words: Cellular in vitro assay for vasopressin receptor activity, V1a receptor cell line (aequorin luminescence). Type of experiment: cell-based. The following applies: for pIC50: CHO cell line transfected with human V1a receptor, [Arg8]-vasopressin at EC50 concentration, read-out: IC50 hV1a; for ratio IC50 hV2/hV1a: selectivity ratio of the IC50 values hV2/hV1a. The method, boiled down: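 Recombinant CHO K1 cells stably expressing human V1a receptor and aequorin, loaded with coelenterazine, were exposed to test compounds for 10 minutes before [Arg^8]-vasopressin at EC50 concentration. Calcium-triggered luminescence was measured immediately, giving IC50 values.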

A further experiment addresses T2, human V2 receptor (Homo sapiens, UniProt P30518).
T2 construct: expressed in transfected cells; host or cells: CHO K1 (Chinese hamster ovary) expressing firefly luciferase under a CRE-responsive promoter
As to the kind of experiment: Cellular in vitro assay for vasopressin receptor activity, V2 receptor cell line (CRE-luciferase). The conditions noted are these: CHO cell line transfected with human V2 receptor; [Arg8]-vasopressin at EC50 concentration; read-out: IC50 hV2. Type of experiment: cell-based. In short, it runs like this: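 CHO K1 cells stably expressing human V2 receptor with CRE-driven firefly luciferase, plated the day before. Test compounds at various concentrations added together with [Arg^8]-vasopressin at EC50 concentration, 3 h at 37° C, 5% CO2. Luminescence read after Triton lysis and luciferin addition; IC50 values reported.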

T2 sequence (P30518 whole entry): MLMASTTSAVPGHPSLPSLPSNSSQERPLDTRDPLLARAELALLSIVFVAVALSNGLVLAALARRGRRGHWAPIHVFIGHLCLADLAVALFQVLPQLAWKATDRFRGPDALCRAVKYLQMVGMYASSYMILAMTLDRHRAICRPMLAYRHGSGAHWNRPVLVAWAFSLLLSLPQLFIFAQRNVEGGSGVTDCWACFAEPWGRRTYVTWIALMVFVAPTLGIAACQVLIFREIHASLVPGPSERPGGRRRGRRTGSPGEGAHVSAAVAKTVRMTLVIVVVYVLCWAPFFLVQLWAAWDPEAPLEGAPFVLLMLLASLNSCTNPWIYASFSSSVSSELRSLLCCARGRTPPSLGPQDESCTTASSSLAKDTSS
T1 sequence (P37288 whole entry): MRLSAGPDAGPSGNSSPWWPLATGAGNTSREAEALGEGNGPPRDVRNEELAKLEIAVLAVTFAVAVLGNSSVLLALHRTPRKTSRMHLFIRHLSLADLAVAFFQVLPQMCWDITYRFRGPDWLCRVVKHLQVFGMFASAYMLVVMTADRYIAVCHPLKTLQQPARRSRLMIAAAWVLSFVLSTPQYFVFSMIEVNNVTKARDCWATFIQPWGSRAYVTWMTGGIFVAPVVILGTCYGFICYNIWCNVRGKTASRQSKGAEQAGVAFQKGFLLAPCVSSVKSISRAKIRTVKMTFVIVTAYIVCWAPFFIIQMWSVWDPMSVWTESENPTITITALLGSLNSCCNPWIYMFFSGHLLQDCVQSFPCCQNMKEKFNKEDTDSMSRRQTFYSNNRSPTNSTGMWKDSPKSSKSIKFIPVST

As to `CNC(=O)c1nc(Cn2nc(-c3ccc(Cl)cc3)n(C[C@H](O)C(F)(F)F)c2=O)nn1-c1ccccc1OC` [Example 42, 3-({3-(4-Chlorophenyl)-5-oxo-4-[(2S)-3,3,3-trifluoro-2-hydroxypropyl]-4,5-dihydro-1H-1,2,4-triazol-1-yl}methyl)-1-(2-methoxyphenyl)-N-methyl-1H-1,2,4-triazole-5-carboxamide], at human V1a receptor, the pIC50 is 8.95 and the “ratio IC50 hV2/hV1a” value is given as 7.4. In addition, at human V2 receptor, the negative-log IC50 (pIC50) was 8.08.

Turning to `CNC(=O)c1nc(Cn2nc(-c3ccc(Cl)cc3)n(C[C@H](O)C(F)(F)F)c2=O)nn1-c1ccccc1Cl` [Example 43, 1-(2-Chlorophenyl)-3-({3-(4-chlorophenyl)-5-oxo-4-[(2S)-3,3,3-trifluoro-2-hydroxypropyl]-4,5-dihydro-1H-1,2,4-triazol-1-yl}methyl)-N-methyl-1H-1,2,4-triazole-5-carboxamide], at human V1a receptor, the negative logarithm of the IC50 (pIC50) was 8.68 and the “ratio IC50 hV2/hV1a” value was 8.1. The negative-log IC50 (pIC50) on human V2 receptor is 7.78.

As to `CON(C)C(=O)c1nc(Cn2nc(-c3ccc(Cl)cc3)n(C[C@H](O)C(F)(F)F)c2=O)nn1-c1ccccc1Cl` [Example 44, 1-(2-Chlorophenyl)-3-({3-(4-chlorophenyl)-5-oxo-4-[(2S)-3,3,3-trifluoro-2-hydroxypropyl]-4,5-dihydro-1H-1,2,4-triazol-1-yl}methyl)-N-methoxy-N-methyl-1H-1,2,4-triazole-5-carboxamide], at human V1a receptor, the pIC50 was 8.92 and the “ratio IC50 hV2/hV1a” value turned out to be 7.2. The pIC50 at human V2 receptor was 8.06.

Take `CON(C)C(=O)c1nc(Cn2nc(-c3ccc(Cl)cc3)n(C[C@H](O)C(F)(F)F)c2=O)nn1-c1cccc(Cl)c1` [Example 45, 1-(3-Chlorophenyl)-3-({3-(4-chlorophenyl)-5-oxo-4-[(2S)-3,3,3-trifluoro-2-hydroxypropyl]-4,5-dihydro-1H-1,2,4-triazol-1-yl}methyl)-N-methoxy-N-methyl-1H-1,2,4-triazole-5-carboxamide]: the pIC50 on human V1a receptor was 9.19; on human V2 receptor, 8.44. In addition, the “ratio IC50 hV2/hV1a” value at human V1a receptor was found to be 5.7.

For the compound `CC(C)(N)CNC(=O)c1nc(Cn2nc(-c3ccc(Cl)cc3)n(C[C@H](O)C(F)(F)F)c2=O)nn1-c1ncccc1C(F)(F)F` [Example 46, N-(2-Amino-2-methylpropyl)-3-({3-(4-chlorophenyl)-5-oxo-4-[(2S)-3,3,3-trifluoro-2-hydroxypropyl]-4,5-dihydro-1H-1,2,4-triazol-1-yl}methyl)-1-[3-(trifluoromethyl)pyridin-2-yl]-1H1,2,4-triazole-5-carboxamide], at human V1a receptor, the negative logarithm of the IC50 (pIC50) is 6.54 and the “ratio IC50 hV2/hV1a” value stood at 5.1. Also, the negative logarithm of the IC50 (pIC50) at human V2 receptor is 5.83.

`O=C(NCC(F)(F)F)c1nc(Cn2nc(-c3ccc(Cl)cc3)n(C[C@H](O)C(F)(F)F)c2=O)nn1-c1ncccc1C(F)(F)F` [Example 47, 3-({3-(4-Chlorophenyl)-5-oxo-4-[(2S)-3,3,3-trifluoro-2-hydroxypropyl]-4,5-dihydro-1H-1,2,4-triazol-1-yl}methyl)-N-(2,2,2-trifluoroethyl)-1-[3-(trifluoromethyl)pyridin-2-yl]-1H-1,2,4-triazole-5-carboxamide]: on human V1a receptor, the pIC50 was 9.04 and the “ratio IC50 hV2/hV1a” value is 41.8. Moreover, the negative-log IC50 (pIC50) at human V2 receptor was 7.41.

As to `CC(C)(C)NC(=O)c1nc(Cn2nc(-c3ccc(Cl)cc3)n(C[C@H](O)C(F)(F)F)c2=O)nn1-c1ncccc1C(F)(F)F` [Example 48, N-Tert-butyl-3-({3-(4-chlorophenyl)-5-oxo-4-[(2S)-3,3,3-trifluoro-2-hydroxypropyl]-4,5-dihydro-1H-1,2,4-triazol-1-yl}methyl)-1-[3-(trifluoromethyl)pyridin-2-yl]-1H-1,2,4-triazole-5-carboxamide], the negative logarithm of the IC50 (pIC50) was 8.88 at human V1a receptor and 7.39 on human V2 receptor. The “ratio IC50 hV2/hV1a” value on human V1a receptor was found to be 31.3.

With `CC1(C)CN(C(=O)c2nc(Cn3nc(-c4ccc(Cl)cc4)n(C[C@H](O)C(F)(F)F)c3=O)nn2-c2ncccc2C(F)(F)F)CCN1` [Example 49, 5-(4-Chlorophenyl)-2-({5-(3,3-dimethylpiperazine-1-carbonyl)-1-[3-(trifluoromethyl)pyridin-2-yl]-1H-1,2,4-triazol-3-yl}methyl)-4-[(2S)-3,3,3-trifluoro-2-hydroxypropyl]-2,4-dihydro-3H-1,2,4-triazol-3-one hydrochloride], at human V1a receptor, the pIC50 was 8.60 and the “ratio IC50 hV2/hV1a” value was found to be 191.0. For the same compound, the pIC50 at human V2 receptor was 6.32.

Regarding `CC(C)(C)CNC(=O)c1nc(Cn2nc(-c3ccc(Cl)cc3)n(C[C@H](O)C(F)(F)F)c2=O)nn1-c1ncccc1C(F)(F)F` [Example 50, 3-({3-(4-Chlorophenyl)-5-oxo-4-[(2S)-3,3,3-trifluoro-2-hydroxypropyl]-4,5-dihydro-1H-1,2,4-triazol-1-yl}methyl)-N-(2,2-dimethylpropyl)-1-[3-(trifluoromethyl)pyridin-2-yl]-1H-1,2,4-triazole-5-carboxamide], on human V1a receptor, the negative logarithm of the IC50 (pIC50) was 9.15 and the “ratio IC50 hV2/hV1a” value is on record as 100.0. In addition, at human V2 receptor, the pIC50 is 7.15.

As to `CC(C)(O)CNC(=O)c1nc(Cn2nc(-c3ccc(Cl)cc3)n(C[C@H](O)C(F)(F)F)c2=O)nn1-c1ncccc1C(F)(F)F` [Example 52, 3-({3-(4-Chlorophenyl)-5-oxo-4-[(2S)-3,3,3-trifluoro-2-hydroxypropyl]-4,5-dihydro-1H-1,2,4-triazol-1-yl}methyl)-N-(2-hydroxy-2-methylpropyl)-1-[3-(trifluoromethyl)pyridin-2-yl]-1H-1,2,4-triazole-5-carboxamide], at human V1a receptor, the pIC50 is 9.33 and the “ratio IC50 hV2/hV1a” value was 82.8. In addition, the pIC50 on human V2 receptor is 7.41.

Consider `CC1(CNC(=O)c2nc(Cn3nc(-c4ccc(Cl)cc4)n(C[C@H](O)C(F)(F)F)c3=O)nn2-c2ncccc2C(F)(F)F)COC1` [Example 53, 3-({3-(4-Chlorophenyl)-5-oxo-4-[(2S)-3,3,3-trifluoro-2-hydroxypropyl]-4,5-dihydro-1H-1,2,4-triazol-1-yl}methyl)-N-[(3-methyloxetan-3-yl)methyl]-1-[3-(trifluoromethyl)pyridin-2-yl]-1H1,2,4-triazole-5-carboxamide], for which, at human V1a receptor, the pIC50 is 9.19 and the “ratio IC50 hV2/hV1a” value was determined as 98.4. At human V2 receptor, the negative logarithm of the IC50 (pIC50) was 7.20.

Turning to `O=C(NCCC(F)(F)F)c1nc(Cn2nc(-c3ccc(Cl)cc3)n(C[C@H](O)C(F)(F)F)c2=O)nn1-c1ncccc1C(F)(F)F` [Example 54, 3-({3-(4-Chlorophenyl)-5-oxo-4-[(2S)-3,3,3-trifluoro-2-hydroxypropyl]-4,5-dihydro-1H-1,2,4-triazol-1-yl}methyl)-1-[3-(trifluoromethyl)pyridin-2-yl]-N-(3,3,3-trifluoropropyl)-1H-1,2,4-triazole-5-carboxamide], at human V1a receptor, the pIC50 is 9.11 and the “ratio IC50 hV2/hV1a” value was found to be 107.1. For the same compound, the pIC50 on human V2 receptor was 7.08.

Take `O=C(NCC1(O)CC1)c1nc(Cn2nc(-c3ccc(Cl)cc3)n(C[C@H](O)C(F)(F)F)c2=O)nn1-c1ncccc1C(F)(F)F` [Example 55, 3-({3-(4-Chlorophenyl)-5-oxo-4-[(2S)-3,3,3-trifluoro-2-hydroxypropyl]-4,5-dihydro-1H-1,2,4-triazol-1-yl}methyl)-N-[(1-hydroxycyclopropyl)methyl]-1-[3-(trifluoromethyl)pyridin-2-yl]-1H1,2,4-triazole-5-carboxamide]: the pIC50 was 8.81 on human V1a receptor and 7.14 at human V2 receptor. The “ratio IC50 hV2/hV1a” value at human V1a receptor is 47.2.
